Assay results published in patent US20110190351A1, “Benzoimidazole Derivatives and Glycogen Synthase Kinase-3 Beta Inhibitors Containing the Same” (Oncotherapy Science, Inc., priority 2008, published 2011).

target: T1, GSK3beta (Homo sapiens, UniProt P49841); assay: Z'-LYTE kinase assay (FRET, SER/THR 9 peptide); assay type: biochemical; details: 0.04 ng/mcl GSKbeta (Invitrogen), 2 mcM SER/THR 9 peptide, 15 mcM ATP, 1 hour at room temperature, 1% DMSO
T1 construct: purchased Invitrogen
Method: GSK3beta activity was measured in the presence or absence of compounds using Z′-LYTE kinase assay (Rodems S M, et al., Assay Drug Dev Technol. 1: 9-19, 2002.) kit with SER/THR 9 peptide (Invitrogen) following the manufacturer's instruction. The Z′-LYTE kinase assay kit employs a fluorescence resonance energy transfer (FRET) between two fluorophores, coumarin and fluorescein, attached to each end of a substrate peptide.
Test compounds were dissolved in DMSO at 12.5 mM and then serially diluted as the DMSO concentration in the assays to be 1%. The serially diluted compounds, 0.04 ng/mcl GSKbeta (Invitrogen) and 2 mcM SER/THR 9 peptide were reacted in a reaction buffer (50 mM HEPES pH 7.5, 0.01% Brij-35, 10 mM MgCl2, 1 mM EGTA, 15 mcM ATP). For 0% phosphorylation control, ATP was omitted from the reaction mixture. For 100% phosphorylation control, SER/THR 9 phosphopeptide was used in place of the SER/THR 9 peptide. Following 1 hour incubation at room temperature, the reaction was stopped by the addition of half assay volume of development solution and further incubated for 1 hour at room temperature. After adding the half assay volume of stop reagent, emission signals of coumarin and fluorescein were measured by Wallac EnVision 2103 multilabel reader (PerkinElmer). The extent of phosphorylation was determined according to the 0% and 100% phosphorylation control samples using the following equation:
C100%=coumarin emission signal of the 100% phosphorylation control C0%=coumarin emission signal of the 0% phosphorylation control F100%=fluorescein emission signal of the 100% phosphorylation control F0%=fluorescein emission signal of the 0% phosphorylation control
IC50 values were calculated by nonlinear four parameter fit using SigmaPlot, version 10.0 (Systat Software, Inc.).

T1 sequence (P49841 whole entry): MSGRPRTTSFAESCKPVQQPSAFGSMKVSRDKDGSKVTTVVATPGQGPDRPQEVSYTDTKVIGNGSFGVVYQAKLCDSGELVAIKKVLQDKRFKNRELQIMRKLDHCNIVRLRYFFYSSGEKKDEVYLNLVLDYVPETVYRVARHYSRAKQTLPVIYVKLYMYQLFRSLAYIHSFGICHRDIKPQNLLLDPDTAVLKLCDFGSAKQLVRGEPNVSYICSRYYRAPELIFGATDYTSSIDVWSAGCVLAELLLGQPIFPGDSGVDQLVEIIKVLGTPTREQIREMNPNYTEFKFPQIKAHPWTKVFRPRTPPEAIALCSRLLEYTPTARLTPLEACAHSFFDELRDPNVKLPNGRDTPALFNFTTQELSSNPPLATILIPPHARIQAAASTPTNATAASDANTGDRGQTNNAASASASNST

`CC(=O)Nc1ccc(NCCNC(=O)c2ccc(O)c3[nH]c(-c4cccs4)nc23)nc1` [Example 70, N-[2-(5-Acetamidopyridin-2-ylamino)ethyl]-7-hydroxy-2-(thiophen-2-yl)-1H-benzo[d]imidazole-4-carboxamide] was tested. Which IC50 did it give?
Its IC50 is 81 nM.

`O=C(N[C@@H](CO)Cc1c[nH]cn1)c1ccc(O)c2[nH]c(-c3cccs3)nc12` [Example 17, (R)-7-Hydroxy-N-[1-hydroxy-3-(1H-imidazol-4-yl)propan-2-yl]-2-(thiophen-2-yl)-1H-benzo[d]imidazole-4-carboxamide] was tested. Which IC50 did it give?
Its IC50 is 170 nM.

Which IC50 does the source give for `O=C(N[C@@H](Cc1cnc[nH]1)C(=O)O)c1ccc(O)c2[nH]c(-c3cccs3)nc12` [Example 71, (S)-2-[7-Hydroxy-2-(thiophen-2-yl)-1H-benzo[d]imidazole-4-carboxamido]-3-(1H-imidazol-5-yl)propanoic Acid] here?
Its IC50 is 340 nM.

With `O=C(CCc1cnc[nH]1)Nc1ccc(O)c2[nH]c(-c3cccs3)nc12` [Example 121, N-(7-hydroxy-2-(thiophen-2-yl)-1H-benzo[d]imidazol-4-yl)-3-(1H-imidazol-5-yl)propanamide] as the molecule, how does the IC50 read?
Its IC50 is 1700 nM.

`O=C(NCCc1ncc[nH]1)c1ccc(O)c2[nH]c(-c3cccs3)nc12` [Example 62, N-[2-(1H-Imidazol-2-yl)ethyl]-7-hydroxy-2-(thiophen-2-yl)-1H-benzo[d]imidazole-4-carboxamide] was tested. Which IC50 did it give?
The IC50 was 260 nM.

Which IC50 does the source give for `COC(=O)C(CO)NC(=O)c1ccc(O)c2[nH]c(-c3cccs3)nc12` (stereo not drawn) [Example 15, Methyl 3-Hydroxy-2-[7-hydroxy-2-(thiophen-2-yl)-1H-benzo[d]imidazole-4-carboxamido]propanoate] here?
The IC50 was 22 nM.

How did the IC50 turn out when `NC(=O)c1ccc(OCCNC(=O)c2ccc(O)c3[nH]c(-c4cccs4)nc23)nc1` [Example 49, N-[2-(5-Carbamoylpyridin-2-yloxy)ethyl]-7-hydroxy-2-(thiophen-2-yl)-1H-benzo[d]imidazole-4-carboxamide] was run?
Its IC50 is 73 nM.

How did the IC50 turn out when `O=C(NCCCNCCO)c1ccc(O)c2[nH]c(-c3cccs3)nc12` [Example 12, 7-Hydroxy-N-[3-(2-hydroxyethylamino)propyl]-2-(thiophen-2-yl)-1H-benzo[d]imidazole-4-carboxamide] was run?
Its IC50 is 180 nM.

Which IC50 does the source give for `O=C(NCCNS(=O)(=O)c1ccncc1)c1ccc(O)c2[nH]c(-c3cccs3)nc12` [Example 40, 7-Hydroxy-N-[2-(pyridine-4-sulfonamido)ethyl]-2-(thiophen-2-yl)-1H-benzo[d]imidazole-4-carboxamide] here?
The IC50 was 390 nM.

With `O=C(Nc1ccc(O)cc1)c1ccc(O)c2[nH]c(C3CC3)nc12` [Example 91] as the molecule, how does the IC50 read?
Its IC50 is 400 nM.

Which IC50 does the source give for `NS(=O)(=O)c1ccc(CCNC(=O)c2ccc(O)c3[nH]c(-c4cccs4)nc23)cc1` [Example 21, 7-Hydroxy-N-(4-sulfamoylphenethyl)-2-(thiophen-2-yl)-1H-benzo[d]imidazole-4-carboxamide] here?
The IC50 was 280 nM.

With `O=C(NCCNc1ccccn1)c1ccc(O)c2[nH]c(-c3cccs3)nc12` [Example 11, 7-Hydroxy-N-[2-(pyridin-2-ylamino)ethyl]-2-(thiophen-2-yl)-1H-benzo[d]imidazole-4-carboxamide] as the molecule, how does the IC50 read?
Its IC50 is 130 nM.

With `NS(=O)(=O)c1ccc(CCNC(=O)c2ccc(O)c3nc(C4CC4)[nH]c23)cc1` [Example 101, 2-Cyclopropyl-4-hydroxy-N-(4-sulfamoylphenethyl)-1H-benzo[d]imidazole-7-carboxamide] as the molecule, how does the IC50 read?
The IC50 was 120 nM.

For `CN(C)CCNC(=O)c1ccc(O)c2[nH]c(-c3cccs3)nc12` [Example 36, N-[2-(dimethylamino)ethyl]-7-hydroxy-2-(thiophen-2-yl)-1H-benzo[d]imidazole-4-carboxamide], which IC50 is on record?
Its IC50 is 180 nM.

How did the IC50 turn out when `O=C(NCCCn1ccnc1)c1ccc(O)c2[nH]c(-c3cccs3)nc12` [Example 76, N-[3-(1H-Imidazol-1-yl)propyl]-7-hydroxy-2-(thiophen-2-yl)-1H-benzo[d]imidazole-4-carboxamide] was run?
Its IC50 is 1.7 nM.

How did the IC50 turn out when `O=C(Nc1cc(O)ccc1C(=O)NC1CCCNC1)c1cccs1` (stereo not drawn) [Example 122, N-(5-hydroxy-2-(piperidin-3-ylcarbamoyl)phenyl)thiophene-2-carboxamide] was run?
The IC50 was 8100 nM.

How did the IC50 turn out when `Cn1cncc1CCNC(=O)c1ccc(O)c2[nH]c(-c3cccs3)nc12` [Example 35, 7-Hydroxy-N-[2-(1-methyl-1H-imidazol-5-yl)ethyl]-2-(thiophen-2-yl)-1H-benzo[d]imidazole-4-carboxamide] was run?
Its IC50 is 130 nM.

With `O=C(NCC(O)CO)c1ccc(O)c2nc(C3CC3)[nH]c12` (stereo not drawn) [Example 97, 2-Cyclopropyl-N-(2,3-dihydroxypropyl)-4-hydroxy-1H-benzo[d]imidazole-7-carboxamide] as the molecule, how does the IC50 read?
Its IC50 is 150 nM.

How did the IC50 turn out when `CC(C)NCCCNC(=O)c1ccc(O)c2[nH]c(-c3cccs3)nc12` [Example 43, N-[3-(Isopropylamino)propyl]-7-hydroxy-2-(thiophen-2-yl)-1H-benzo[d]imidazole-4-carboxamide] was run?
Its IC50 is 220 nM.

With `O=C(NCCc1ccc(O)c(O)c1)c1ccc(O)c2[nH]c(-c3ccco3)nc12` [Example 80, N-(3,4-Dihydroxyphenethyl)-2-(furan-2-yl)-7-hydroxy-1H-benzo[d]imidazole-4-carboxamide] as the molecule, how does the IC50 read?
Its IC50 is 19 nM.

With `Nc1ccc(CCNC(=O)c2ccc(O)c3nc(-c4ccccc4)[nH]c23)cc1` [Example 93, N-(4-Aminophenethyl)-4-hydroxy-2-phenyl-1H-benzo[d]imidazole-7-carboxamide] as the molecule, how does the IC50 read?
Its IC50 is 400 nM.

How did the IC50 turn out when `O=C(NCCCC1C=NNC1=O)c1ccc(O)c2[nH]c(-c3ccco3)nc12` (stereo not drawn) [Example 79] was run?
Its IC50 is 30 nM.

How did the IC50 turn out when `CC(=O)NCCNC(=O)c1ccc(O)c2[nH]c(-c3cccs3)nc12` [Example 42, N-(2-Acetamidoethyl)-7-hydroxy-2-(thiophen-2-yl)-1H-benzo[d]imidazole-4-carboxamide] was run?
Its IC50 is 74 nM.

For `O=C(NCc1ccc(O)c(O)c1)c1ccc(O)c2[nH]c(-c3cccs3)nc12` [Example 37, N-(3,4-Dihydroxybenzyl)-7-hydroxy-2-(thiophen-2-yl)-1H-benzo[d]imidazole-4-carboxamide], which IC50 is on record?
The IC50 was 38 nM.

With `O=C(/C=C/c1cnc[nH]1)Nc1ccc(O)c2[nH]c(-c3cccs3)nc12` [Example 120] as the molecule, how does the IC50 read?
Its IC50 is 3000 nM.

Which IC50 does the source give for `NS(=O)(=O)c1ccc(CNC(=O)c2ccc(O)c3[nH]c(-c4cccs4)nc23)cc1` [Example 8, 7-Hydroxy-N-(4-sulfamoylbenzyl)-2-(thiophen-2-yl)-1H-benzo[d]imidazole-4-carboxamide] here?
Its IC50 is 52 nM.

For `CS(=O)(=O)Nc1ccc(NCCNC(=O)c2ccc(O)c3[nH]c(-c4cccs4)nc23)nc1` [Example 69, 7-Hydroxy-N-{2-[5-(methylsulfonamido)pyridin-2-ylamino]ethyl}-2-(thiophen-2-yl)-1H-benzo[d]imidazole-4-carboxamide], which IC50 is on record?
Its IC50 is 22 nM.
